Tests used:
EGFR (human) = EGFR (human) (UniProt P00533)
[1] = target: EGFR (Human), P00533 [T790M/L858R]
[2] = target: EGFR (Human), P00533 [Assessment of EGFR-Del T790M Dependent Cell Proliferation in BaF3 Cells]
[3] = target: EGFR (Human), P00533 [T790M/L858R]; details: baf3
[4] = target: EGFR (human), P00533 [L858R]
EGFR (human), P00533 [L858R], sequence (P00533 whole entry L858R, looked up): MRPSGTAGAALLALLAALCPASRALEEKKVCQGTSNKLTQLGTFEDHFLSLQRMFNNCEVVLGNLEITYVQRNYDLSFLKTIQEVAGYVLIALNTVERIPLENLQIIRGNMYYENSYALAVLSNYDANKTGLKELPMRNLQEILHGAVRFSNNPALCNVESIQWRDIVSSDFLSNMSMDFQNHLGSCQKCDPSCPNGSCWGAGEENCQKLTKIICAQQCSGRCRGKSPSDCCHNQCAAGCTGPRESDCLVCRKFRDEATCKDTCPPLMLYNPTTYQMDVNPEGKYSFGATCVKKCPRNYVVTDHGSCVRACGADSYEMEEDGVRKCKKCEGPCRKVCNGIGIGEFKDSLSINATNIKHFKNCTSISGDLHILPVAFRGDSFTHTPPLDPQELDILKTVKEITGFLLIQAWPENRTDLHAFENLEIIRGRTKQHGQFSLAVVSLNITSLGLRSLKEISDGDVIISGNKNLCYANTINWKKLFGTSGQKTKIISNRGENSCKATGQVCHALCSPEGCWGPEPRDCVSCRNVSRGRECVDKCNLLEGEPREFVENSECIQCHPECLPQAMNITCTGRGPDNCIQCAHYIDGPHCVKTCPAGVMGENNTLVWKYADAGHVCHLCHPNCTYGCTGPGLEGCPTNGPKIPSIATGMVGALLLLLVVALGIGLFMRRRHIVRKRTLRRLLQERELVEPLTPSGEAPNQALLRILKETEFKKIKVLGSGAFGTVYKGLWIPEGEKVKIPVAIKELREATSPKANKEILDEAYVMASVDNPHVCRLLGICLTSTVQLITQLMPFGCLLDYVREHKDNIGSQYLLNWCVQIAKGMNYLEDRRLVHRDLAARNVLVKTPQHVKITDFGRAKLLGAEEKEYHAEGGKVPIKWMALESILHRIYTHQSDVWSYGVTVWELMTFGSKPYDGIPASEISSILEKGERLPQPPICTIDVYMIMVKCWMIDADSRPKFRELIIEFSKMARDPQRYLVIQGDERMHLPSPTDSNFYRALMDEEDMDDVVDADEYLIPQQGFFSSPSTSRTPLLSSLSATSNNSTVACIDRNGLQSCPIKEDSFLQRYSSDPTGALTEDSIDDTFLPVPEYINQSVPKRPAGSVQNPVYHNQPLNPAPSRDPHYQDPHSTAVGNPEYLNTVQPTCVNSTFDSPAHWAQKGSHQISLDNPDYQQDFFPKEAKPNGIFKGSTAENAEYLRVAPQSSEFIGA

EGFR (Human), P00533 [T790M/L858R], sequence (P00533 whole entry T790M/L858R, looked up): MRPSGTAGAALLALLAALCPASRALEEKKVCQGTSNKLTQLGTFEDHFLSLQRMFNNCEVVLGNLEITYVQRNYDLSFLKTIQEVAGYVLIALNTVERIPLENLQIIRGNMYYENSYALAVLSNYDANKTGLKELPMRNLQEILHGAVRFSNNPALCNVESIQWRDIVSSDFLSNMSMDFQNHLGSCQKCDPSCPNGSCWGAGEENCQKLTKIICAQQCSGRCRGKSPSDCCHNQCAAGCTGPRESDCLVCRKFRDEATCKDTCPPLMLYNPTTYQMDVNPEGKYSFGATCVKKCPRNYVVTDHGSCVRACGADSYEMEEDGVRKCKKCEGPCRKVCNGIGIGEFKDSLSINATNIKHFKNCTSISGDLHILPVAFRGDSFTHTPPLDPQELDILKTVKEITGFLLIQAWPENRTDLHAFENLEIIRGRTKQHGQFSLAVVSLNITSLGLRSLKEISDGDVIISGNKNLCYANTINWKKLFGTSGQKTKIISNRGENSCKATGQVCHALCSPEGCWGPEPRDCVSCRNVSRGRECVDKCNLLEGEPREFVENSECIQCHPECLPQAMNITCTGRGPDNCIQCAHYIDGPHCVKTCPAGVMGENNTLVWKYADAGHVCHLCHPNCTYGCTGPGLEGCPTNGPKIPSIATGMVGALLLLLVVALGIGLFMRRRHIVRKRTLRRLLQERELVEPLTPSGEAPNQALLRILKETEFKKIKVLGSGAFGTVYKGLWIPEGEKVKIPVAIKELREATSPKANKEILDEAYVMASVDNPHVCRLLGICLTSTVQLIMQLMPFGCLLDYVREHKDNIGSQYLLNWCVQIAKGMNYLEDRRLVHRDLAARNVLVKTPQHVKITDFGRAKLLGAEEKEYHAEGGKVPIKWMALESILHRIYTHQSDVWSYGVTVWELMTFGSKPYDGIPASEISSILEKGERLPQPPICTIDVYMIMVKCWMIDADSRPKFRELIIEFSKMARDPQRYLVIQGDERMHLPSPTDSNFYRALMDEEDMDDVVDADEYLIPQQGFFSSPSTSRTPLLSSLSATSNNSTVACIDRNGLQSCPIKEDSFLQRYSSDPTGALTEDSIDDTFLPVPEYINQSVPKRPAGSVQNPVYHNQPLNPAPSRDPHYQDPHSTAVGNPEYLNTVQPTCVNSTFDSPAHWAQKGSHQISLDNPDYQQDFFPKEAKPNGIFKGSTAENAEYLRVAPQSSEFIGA
EGFR (human), sequence (P00533 whole entry, looked up): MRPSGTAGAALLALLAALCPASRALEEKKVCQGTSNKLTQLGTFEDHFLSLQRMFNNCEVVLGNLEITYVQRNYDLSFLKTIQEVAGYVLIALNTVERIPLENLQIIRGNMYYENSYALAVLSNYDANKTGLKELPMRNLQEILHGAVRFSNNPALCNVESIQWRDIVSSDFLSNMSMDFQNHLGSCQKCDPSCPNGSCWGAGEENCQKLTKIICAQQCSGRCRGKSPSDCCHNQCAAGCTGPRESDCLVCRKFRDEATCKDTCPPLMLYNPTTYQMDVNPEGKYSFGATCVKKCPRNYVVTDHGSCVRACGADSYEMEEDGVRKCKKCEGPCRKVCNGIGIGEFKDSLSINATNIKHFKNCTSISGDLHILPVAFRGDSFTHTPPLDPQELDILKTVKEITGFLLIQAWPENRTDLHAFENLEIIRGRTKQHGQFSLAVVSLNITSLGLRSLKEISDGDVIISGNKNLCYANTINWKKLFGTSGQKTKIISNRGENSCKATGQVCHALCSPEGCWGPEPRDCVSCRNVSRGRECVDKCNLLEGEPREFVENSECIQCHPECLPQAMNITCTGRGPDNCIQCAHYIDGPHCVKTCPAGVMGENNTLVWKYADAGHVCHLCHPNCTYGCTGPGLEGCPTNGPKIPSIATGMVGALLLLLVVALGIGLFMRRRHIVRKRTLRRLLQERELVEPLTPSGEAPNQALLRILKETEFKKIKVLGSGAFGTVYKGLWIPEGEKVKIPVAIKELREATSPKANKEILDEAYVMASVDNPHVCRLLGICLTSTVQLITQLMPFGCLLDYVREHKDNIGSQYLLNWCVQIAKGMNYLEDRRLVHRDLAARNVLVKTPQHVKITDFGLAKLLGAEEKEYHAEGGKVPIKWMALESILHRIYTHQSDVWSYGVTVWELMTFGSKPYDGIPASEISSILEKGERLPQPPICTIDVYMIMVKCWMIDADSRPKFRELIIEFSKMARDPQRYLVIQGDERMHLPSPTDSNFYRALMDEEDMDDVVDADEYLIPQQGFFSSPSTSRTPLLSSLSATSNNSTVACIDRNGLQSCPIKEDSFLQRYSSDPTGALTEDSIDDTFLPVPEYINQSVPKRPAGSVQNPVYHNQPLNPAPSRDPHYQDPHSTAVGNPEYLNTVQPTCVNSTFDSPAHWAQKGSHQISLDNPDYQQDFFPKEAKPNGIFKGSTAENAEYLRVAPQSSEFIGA
EGFR (Human), P00533 [Assessment of EGFR-Del T790M Dependent Cell Proliferation in BaF3 Cells], sequence (P00533 whole entry, looked up, stated change not applied): as the sequence (P00533 whole entry, looked up) above

Row | Structure (SMILES) | IC50 (EGFR (human)) [µM] | IC50 [1] [µM] | IC50 [2] [µM] | IC50 [3] [µM] | IC50 [4] [µM]
1 | C=CC(=O)Nc1cc(Nc2ncc(Cl)c(Nc3ccccc3P(C)(C)=O)n2)c(OC)cc1C#CCN(C)CCOC | < 0.05 | < 0.05 | < 0.05 | < 0.05 | < 0.05
2 | COc1cc(N2CCOCC2)c(NC(=O)C#CCCN2CCCCC2)cc1Nc1ncc(Cl)c(Nc2ccccc2P(C)(C)=O)n1 | < 0.05 | < 0.05 | < 0.05 | < 0.05 | < 0.05
3 | C=CC(=O)Nc1cc(Nc2ncc(Cl)c(Nc3ccccc3P(C)(C)=O)n2)c(OC)cc1C#CC(C)(C)N1CCCC1 | 0.05 to 0.1 | < 0.05 | < 0.05 | < 0.05 | < 0.05
4 | C=CC(=O)Nc1cc(Nc2ncc(Cl)c(Nc3ccccc3P(C)(C)=O)n2)c(OC)cc1N1CCC(N(C)C)CC1 | < 0.05 | < 0.05 | < 0.05 | 0.101 to 0.25 | < 0.05
5 | C=CC(=O)Nc1ccc(OC)c(Nc2ncc(Cl)c(Nc3ccc(OCC4CCOCC4)cc3P(C)(C)=O)n2)c1 | 0.05 to 0.1 | < 0.05 | < 0.05 | < 0.05 | < 0.05
6 | C=CC(=O)Nc1ccc(OC)c(Nc2ncc(Cl)c(Nc3ccc(OCCCN(C)C)cc3P(C)(C)=O)n2)c1 | < 0.05 | < 0.05 | < 0.05 | < 0.05 | < 0.05
7 | C=C(CN1CCCCC1)C(=O)Nc1ccc(OC)c(Nc2ncc(Cl)c(Nc3ccccc3P(C)(C)=O)n2)c1 | < 0.05 | < 0.05 | < 0.05 | < 0.05 | < 0.05
8 | C=CC(=O)Nc1cc(Nc2ncc(Cl)c(Nc3ccccc3P(C)(C)=O)n2)c(OC)cc1N1CCC(N(C)CCN(CC)CC)C1 (stereo not given) | < 0.05 | < 0.05 | < 0.05 | 0.101 to 0.25 | < 0.05
9 | CC#CC(=O)Nc1cc(Nc2ncc(Cl)c(Nc3ccccc3P(C)(C)=O)n2)c(OC)cc1N1CCC(N2CCN(C)CC2)CC1 | 0.05 to 0.1 | < 0.05 | < 0.05 | < 0.05 | < 0.05
10 | C=CC(=O)Nc1cc(Nc2ncc(Cl)c(Nc3ccccc3P(C)(C)=O)n2)c(OC)cc1N1CCC(N(C)CCOC)C1 (stereo not given) | < 0.05 | < 0.05 | < 0.05 | < 0.05 | < 0.05
11 | C=CC(=O)Nc1cc(Nc2ncc(Cl)c(Nc3ccccc3P(C)(C)=O)n2)c(OC)cc1C#CCN(C)C(C)C | < 0.05 | < 0.05 | < 0.05 | < 0.05 | < 0.05
12 | C=CC(=O)Nc1cc(Nc2ncc(Cl)c(Nc3ccccc3P(C)(C)=O)n2)c(OC)cc1N1CCC(O)C1 (stereo not given) | < 0.05 | < 0.05 | 0.05 to 0.1 | 0.101 to 0.25 | < 0.05
13 | C=CC(=O)Nc1ccc(CC)c(Nc2ncc(Cl)c(Nc3ccccc3P(C)(C)=O)n2)c1 | < 0.05 | < 0.05 | < 0.05 | < 0.05 | < 0.05
14 | C=CC(=O)Nc1cc(Nc2ncc(Cl)c(Nc3ccccc3P(C)(C)=O)n2)c(OC)cc1OCCN1CCCC1 | < 0.05 | < 0.05 | < 0.05 | < 0.05 | < 0.05
15 | C=CC(=O)Nc1cc(Nc2ncc(Cl)c(Nc3ccccc3P(C)(C)=O)n2)c(OC)cc1N1CCC(N(CC)CC)C1 (stereo not given) | < 0.05 | < 0.05 | < 0.05 | < 0.05 | < 0.05
16 | C=C(CN1CCN(CCO)CC1)C(=O)Nc1ccc(OC)c(Nc2ncc(Cl)c(Nc3ccccc3P(C)(C)=O)n2)c1 | < 0.05 | < 0.05 | < 0.05 | < 0.05 | < 0.05
17 | C=C(CN1CCN(C(C)C)CC1)C(=O)Nc1ccc(OC)c(Nc2ncc(Cl)c(Nc3ccccc3P(C)(C)=O)n2)c1 | 0.05 to 0.1 | < 0.05 | < 0.05 | < 0.05 | < 0.05

Row | Structure (SMILES) | IC50 (EGFR (human)) [µM] | IC50 [1] [µM] | IC50 [2] [µM] | IC50 [3] [µM] | IC50 [4] [µM]
18 | C=CC(=O)Nc1cc(Nc2ncc(Cl)c(Nc3ccccc3P(C)(C)=O)n2)c(OC)cc1O[C@@H]1CCCN(C)C1 | < 0.05 | < 0.05 | < 0.05 | < 0.05 | < 0.05
19 | C=CC(=O)Nc1cc(Nc2ncc(Cl)c(Nc3ccccc3P(C)(C)=O)n2)c(OC)cc1N1CCN(C2CCN(C)CC2)CC1 | < 0.05 | < 0.05 | 0.05 to 0.1 | 0.101 to 0.25 | < 0.05
20 | C=CC(=O)Nc1cc(Nc2ncc(Cl)c(Nc3ccccc3P(C)(C)=O)n2)c(C)cc1C#CCN(C)C | < 0.05 | < 0.05 | < 0.05 | < 0.05 | < 0.05
21 | C=CC(=O)Nc1cc(Nc2ncc(Cl)c(Nc3ccccc3P(C)(C)=O)n2)c(OC)cc1C#CCN(C)CC | < 0.05 | < 0.05 | < 0.05 | < 0.05 | < 0.05
22 | C=CC(=O)Nc1cc(Nc2ncc(Cl)c(Nc3ccccc3P(C)(C)=O)n2)c(OC)cc1C | < 0.05 | < 0.05 | < 0.05 | < 0.05 | < 0.05
23 | COCC#CC(=O)Nc1cc(Nc2ncc(Cl)c(Nc3ccccc3P(C)(C)=O)n2)c(OC)cc1N1CCOCC1 | < 0.05 | < 0.05 | < 0.05 | < 0.05 | < 0.05
24 | C=C(Cl)C(=O)Nc1ccc(OC)c(Nc2ncc(Cl)c(Nc3ccccc3P(C)(C)=O)n2)c1 | < 0.05 | < 0.05 | < 0.05 | 0.101 to 0.25 | < 0.05
25 | C=CC(=O)Nc1cc(Nc2ncc(Cl)c(Nc3ccccc3P(C)(C)=O)n2)c(C)cc1OC(COC)CN(C)C (stereo not given) | < 0.05 | < 0.05 | < 0.05 | < 0.05 | < 0.05
26 | C=CC(=O)Nc1ccc(Nc2ncc(Cl)c(Nc3cccc(OCCN4CCCCC4)c3P(C)(C)=O)n2)c(OC)c1 | 0.101 to 0.25 | < 0.05 | < 0.05 | 0.101 to 0.25 | < 0.05
27 | C=CC(=O)Nc1cc(Nc2ncc(Cl)c(Nc3ccccc3P(C)(C)=O)n2)c(OC)cc1N1CCC(N2CCCCC2)C1 (stereo not given) | < 0.05 | < 0.05 | < 0.05 | < 0.05 | < 0.05
28 | C=CC(=O)Nc1cc(Nc2ncc(Cl)c(Nc3ccccc3P(C)(C)=O)n2)c(OC)cc1N1CCC(N2CCCC2)CC1 | 0.05 to 0.1 | < 0.05 | < 0.05 | 0.101 to 0.25 | < 0.05
29 | C=CC(=O)Nc1cc(Nc2ncc(Cl)c(Nc3ccccc3P(C)(C)=O)n2)c(OC)cc1OCc1cccnc1 | 0.05 to 0.1 | < 0.05 | 0.05 to 0.1 | 0.101 to 0.25 | < 0.05
30 | COc1cc(C)c(NC(=O)CCl)cc1Nc1ncc(C)c(Nc2ccccc2P(C)(C)=O)n1 | < 0.05 | < 0.05 | < 0.05 | < 0.05 | < 0.05
31 | COCC#CC(=O)Nc1ccc(OC)c(Nc2ncc(Cl)c(Nc3ccccc3P(C)(C)=O)n2)c1 | < 0.05 | < 0.05 | < 0.05 | < 0.05 | < 0.05
32 | C=CC(=O)Nc1ccc(Cl)c(Nc2ncc(Cl)c(Nc3ccccc3P(C)(C)=O)n2)c1 | < 0.05 | < 0.05 | < 0.05 | < 0.05 | < 0.05
33 | COc1cc(C)c(NC(=O)CCl)cc1Nc1ncc(Cl)c(Nc2ccccc2P(C)(C)=O)n1 | < 0.05 | < 0.05 | < 0.05 | < 0.05 | < 0.05
34 | C=CC(=O)Nc1cc(Nc2ncc(Cl)c(Nc3ccccc3P(C)(C)=O)n2)c(OC)cc1C#CCN(C)C | < 0.05 | < 0.05 | < 0.05 | < 0.05 | < 0.05

Reference: the Kinase Knowledgebase extract (Sharma et al. 2016)
